Results taken from patent US12559504B2, “Benzotriazole derivative” (UBE CORPORATION, priority 2019, dated 2026).

How the values were obtained:
NQO1 [1] = assay: NQO1 expression induction test in mouse kidney (single administration); format: in vivo; conditions: Mus musculus, po, 6 h, BALB/c mouse kidney, 6 hours after administration, ratio to control group
Method in brief: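 Female BALB/c mice received a single oral dose of compound in 0.5% methylcellulose, with untreated mice as controls. Six hours later, left-kidney NQO1 mRNA was measured by SYBR real-time RT-PCR normalised to GAPDH. Induction was expressed as the ratio of mean treated to mean control expression.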

NQO1 [2] = assay: NQO1 enzyme induction test (in vitro) in Hepa1c1c7 cells; format: cell-based; conditions: Mus musculus, Hepa-1c1c7, 48 h, concentration to elevate the NQO1 activity by 1.5 times, about 48 hours, read-out: EC150
Method in brief: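 Mouse Hepa1c1c7 cells treated about 48 h with compound (0.1% DMSO final), then lysed. NQO1 activity read as MTT reduction at 540 nm with menadione substrate, 5 min at room temperature, and corrected for cell number by CellTiter-Glo. EC150 is the concentration raising NQO1 activity 1.5-fold.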

[3] = Metabolism test using human liver microsome fractions; format: in vitro ADME; conditions: human liver microsomes, test compound 10 μmol/L, NADPH and UDP-glucuronic acid, 37° C.
Method in brief: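 Human or monkey liver microsomes (1 mg protein) with NADPH-regenerating system plus UDP-glucuronic acid/UGT mix, 37 °C; compound at 10 μmol/L final. Samples at 0–30 min quenched in acetonitrile, UV-HPLC; elimination rate (pmol/min/mg-P) from linear slope of residual amount over time.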

[4] = target: T1, GST fusion human Keap1 (amino acid residue: 325-624) protein (Homo sapiens, UniProt Q14145); assay: Keap1-Nrf2 binding inhibition test (fluorescence polarization); conditions: compound concentration of 100 nM; read-out: inhibition rate
T1 construct: GST fusion human Keap1 (amino acid residue: 325-624) protein; purchased Protein tech Ag0779
T1 sequence (Q14145 325-624): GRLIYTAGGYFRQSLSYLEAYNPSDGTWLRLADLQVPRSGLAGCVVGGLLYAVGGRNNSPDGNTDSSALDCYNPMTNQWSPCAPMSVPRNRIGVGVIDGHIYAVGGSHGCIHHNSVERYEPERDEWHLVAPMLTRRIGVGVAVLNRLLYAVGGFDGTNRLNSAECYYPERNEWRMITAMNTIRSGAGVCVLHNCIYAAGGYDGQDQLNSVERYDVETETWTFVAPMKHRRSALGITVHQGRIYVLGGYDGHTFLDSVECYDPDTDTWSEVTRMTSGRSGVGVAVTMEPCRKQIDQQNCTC
Method in brief: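 Fluorescence polarization with FITC-labelled Nrf2 peptide (FITC-Ahx-LDEETGEFL-NH2) and GST-human Keap1 (325-624) in 20 mM Tris pH 7.5, 150 mM NaCl, 0.05% Tween 20, 5 mM DTT, BSA; 30 min at room temperature, ex 482/em 530 nm. Percent inhibition at 100 nM compound, Keap1-free wells = 100%.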

SMILES | inhibition at 0.1 µM [4] | fold induction at 20 mg/kg (NQO1 [1]) | EC (1.5-fold NQO1 activity) (NQO1 [2]) | Human metabolic rate [3] | fold induction at 30 mg/kg (NQO1 [1]) | fold induction at 10 mg/kg (NQO1 [1]; Dose 10 mg/kg)
CC[C@@H]1CN(Cc2cc(C(c3ccc4c(nnn4C)c3C)C(C)(C)C(=O)O)ccc2C)Cc2cc3nn(C)cc3cc2O1 (stereo partly drawn) [Example 66-(b), 3-(1,4-dimethyl-1H-benzo[d][1,2,3]triazol-5-yl)-3-(3-(((R)-6-ethyl-2-methyl-2,6,7,9-tetrahydro-8H-[1,4]oxazepino[7,6-f]indazol-8-yl)methyl)-4-methylphenyl)-2,2-dimethylpropanoic Acid] | ≥ 50% | > 6 | 0.0005 to 0.005 µM | E (metabolic rate≥250 pmol/min/mg protein) |  | 
CC[C@@H]1CN(Cc2cc(C(c3ccc4c(nnn4C)c3C)C(C)(C)C(=O)O)ccc2C)Cc2cc3c(cc2O1)OC(F)(F)O3 (stereo partly drawn) [Example 1-(b), 3-(1,4-dimethyl-1H-benzo[d][1,2,3]triazol-5-yl)-3-(3-(((R)-6-ethyl-2,2-difluoro-6,7-dihydro-[1,3]dioxolo[4′,5′:4,5]benzo[1,2-f][1,4]oxazepin-8(9H)-yl)methyl)-4-methylphenyl)-2,2-dimethylpropanoic Acid] | ≥ 50% |  | 0.0005 to 0.005 µM | C (150≤metabolic rate<200 pmol/min/mg protein) | 3 to 6 | 
CC[C@@H]1CN(Cc2cc(C(c3ccc4c(nnn4C)c3C)C(C)(C)C(=O)O)ccc2C)Cc2cc3cn[nH]c3cc2O1 (stereo partly drawn) [Example 15-(b), 3-(1,4-dimethyl-1H-benzo[d][1,2,3]triazol-5-yl)-3-(3-(((R)-8-ethyl-1,5,7,8-tetrahydro-6H-[1,4]oxazepino[6,7-f]indazol-6-yl)methyl)-4-methylphenyl)-2,2-dimethylpropanoic Acid] | ≥ 50% |  | 0.0005 to 0.005 µM | E (metabolic rate≥250 pmol/min/mg protein) | 3 to 6 | 
CC[C@@H]1CN(Cc2cc(C(c3ccc4c(nnn4C)c3C)C(C)(C)C(=O)O)ccc2C)Cc2ncc3ccccc3c2O1 (stereo partly drawn) [Example 25-(b), 3-(1,4-dimethyl-1H-benzo[d][1,2,3]triazol-5-yl)-3-(3-(((R)-2-ethyl-2,3-dihydro-[1,4]oxazepino[6,7-c]isoquinolin-4(5H)-yl)methyl)-4-methylphenyl)-2,2-dimethylpropanoic Acid] | ≥ 50% |  | 0.0005 to 0.005 µM | D (200≤metabolic rate<250 pmol/min/me protein) | > 6 | 
CC[C@@H]1CN(Cc2cc(C(c3ccc4c(nnn4C)c3C)C(C)(C)C(=O)O)ccc2C)Cc2ccccc2O1 (single isomer, unassigned) [Example C1, reference compound] | ≥ 50% |  | 0.005 to 0.05 µM | C (150≤metabolic rate<200 pmol/min/mg protein) |  | ≤ 3
CC[C@@H]1CN(Cc2cc(C(c3ccc4c(nnn4C)c3C)C(C)(C)C(=O)O)ccc2C)Cc2cc3c(cnn3C)cc2O1 (stereo partly drawn) [Example 65-(b), 3-(1,4-dimethyl-1H-benzo[d][1,2,3]triazol-5-yl)-3-(3-(((R)-6-ethyl-1-methyl-1,6,7,9-tetrahydro-8H-[1,4]oxazepino[7,6-f]indazol-8-yl)methyl)-4-methylphenyl)-2,2-dimethylpropanoic Acid] | ≥ 50% | 3 to 6 | 0.0005 to 0.005 µM | D (200≤metabolic rate<250 pmol/min/me protein) |  | 
CC[C@@H]1CN(Cc2cc(C(c3ccc4c(nnn4C)c3C)C(C)(C)C(=O)O)ccc2C)Cc2cc3cn(C)nc3cc2O1 (stereo partly drawn) [Example 51-(b), 3-(1,4-dimethyl-1H-benzo[d][1,2,3]triazol-5-yl)-3-(3-(((R)-8-ethyl-2-methyl-2,5,7,8-tetrahydro-6H-[1,4]oxazepino[6,7-f]indazol-6-yl)methyl)-4-methylphenyl)-2,2-dimethylpropanoic Acid] | ≥ 50% |  | 0.0005 to 0.005 µM | B (100≤metabolic rate<150 pmol/min/mg protein) | > 6 | 
CC[C@@H]1CN(Cc2cc(C(c3ccc4c(nnn4C)c3C)C(C)(C)C(=O)O)ccc2C)Cc2cc3nccc(OC)c3cc2O1 (stereo partly drawn) [Example 70-(b), 3-(1,4-dimethyl-1H-benzo[d][1,2,3]triazol-5-yl)-3-(3-(((R)-2-ethyl-10-methoxy-2,3-dihydro-[1,4]oxazepino[7,6-g]quinolin-4(5H)-yl)methyl)-4-methylphenyl)-2,2-dimethylpropanoic Acid] | ≥ 50% | > 6 | 0.0005 to 0.005 µM | E (metabolic rate≥250 pmol/min/mg protein) |  | 
CC[C@@H]1CN(Cc2cc(C(c3ccc4c(nnn4C)c3C)C(C)(C)C(=O)O)ccc2C)Cc2c(ccc3ccccc23)O1 (stereo partly drawn) [Example 16-(b), 3-(1,4-dimethyl-1H-benzo[d][1,2,3]triazol-5-yl)-3-(3-(((R)-4-ethyl-3,4-dihydronaphtho[1,2-f][1,4]oxazepin-2(1H)-yl)methyl)-4-methylphenyl)-2,2-dimethylpropanoic Acid] | ≥ 50% |  | 0.05 to 0.5 µM | E (metabolic rate≥250 pmol/min/mg protein) | ≤ 3 | 

Second part, led by results:

inhibition at 0.1 µM [4] | SMILES | fold induction at 20 mg/kg (NQO1 [1]) | EC (1.5-fold NQO1 activity) (NQO1 [2]) | Human metabolic rate [3] | fold induction at 30 mg/kg (NQO1 [1]) | fold induction at 10 mg/kg (NQO1 [1]; Dose 10 mg/kg)
≥ 50% | CC[C@@H]1CN(Cc2cc(C(c3ccc4c(nnn4C)c3C)C(C)(C)C(=O)O)ccc2Cl)Cc2cc3ncccc3cc2O1 (stereo partly drawn) [Example 80-(b), 3-(4-chloro-3-(((R)-2-ethyl-2,3-dihydro-[1,4]oxazepino[7,6-g]quinolin-4 (5H)-yl)methyl)phenyl)-3-(1,4-dimethyl-1H-benzo[d][1,2, 3]triazol-5-yl)-2,2-dimethylpropanoic Acid] | > 6 | 0.005 to 0.05 µM | D (200≤metabolic rate<250 pmol/min/me protein) |  | 
≥ 50% | CC[C@@H]1CN(Cc2cc(C(c3ccc4c(nnn4C)c3C)C(C)(C)C(=O)O)ccc2C)Cc2cc3ccncc3cc2O1 (stereo partly drawn) [Example 52-(b), 3-(1,4-dimethyl-1H-benzo[d][1,2, 3]triazol-5-yl)-3-(3-(((R)-2-ethyl-2,3-dihydro-[1,4]oxazepino[6,7-g]isoquinolin-4 (5H)-yl)methyl)-4-methylphenyl)-2,2-dimethylpropanoic Acid] |  | 0.0005 to 0.005 µM | C (150≤metabolic rate<200 pmol/min/mg protein) | > 6 | 
≥ 50% | Cc1ccc(C(c2ccc3c(nnn3C)c2C)C(C)(C)C(=O)O)cc1CN1Cc2cc3ncccc3cc2O[C@H](C)C1 (stereo partly drawn) [Example 75-(b), 3-(1,4-dimethyl-1H-benzo[d][1,2,3]triazol-5-yl)-2,2-dimethyl-3-(4-methyl-3-(((R)-2-methyl-2,3-dihydro-[1,4]oxazepino[7,6-g]quinolin-4 (5H)-yl)methyl)phenyl) propanoic Acid] | > 6 | 0.0005 to 0.005 µM | E (metabolic rate≥250 pmol/min/mg protein) |  | 
≥ 50% | CC[C@@H]1CN(Cc2cccc(C(c3ccc4c(nnn4C)c3C)C(C)(C)C(=O)O)c2)Cc2cc3ncccc3cc2O1 (stereo partly drawn) [Example 79-(b), 3-(1,4-dimethyl-1H-benzo[d][1,2,3]triazol-5-yl)-3-(3-(((R)-2-ethyl-2,3-dihydro-[1,4]oxazepino[7,6-g]quinolin-4(5H)-yl)methyl)phenyl)-2,2-dimethylpropanoic Acid] | 3 to 6 | 0.005 to 0.05 µM | E (metabolic rate≥250 pmol/min/mg protein) |  | 
